Molecules are shown by their SMILES. Numbered stars: 1 amine (or outer) side, 2 acyl side, 3 side chain; on linkers, the order of the positions; unused ones are H or OH. Bridge positions count the residues as written; N and C are the ends. Square brackets hold non-standard residues; d marks the D form. Peptide text beside a SMILES is read from it. * marks the point of attachment. hPhe(3-Cl-4-CF3) = N[C@@H](CCc1ccc(C(F)(F)F)c(Cl)c1)C(=O)O; hPhe(3-F,4-CF3) = N[C@@H](CCc1ccc(C(F)(F)F)c(F)c1)C(=O)O; NMePhe(4-CF3) = CN[C@@H](Cc1ccc(C(F)(F)F)cc1)C(=O)O; Piperazinyl(4-(3-oxetanyl)) = C1OCC1N1CCN(*)CC1; NMePhe(4-Cl) = CN[C@@H](Cc1ccc(Cl)cc1)C(=O)O; NMePhe(4-Me) = CN[C@@H](Cc1ccc(C)cc1)C(=O)O; NMePhe(3-F) = CN[C@@H](Cc1cccc(F)c1)C(=O)O; NMedβ3hAla = C[C@H](CC(=O)[*:2])N(C)[*:1]; NMeNva(5,5-F2) = CN[C@@H](CCC(F)F)C(=O)O; NMeGly(cPent) = CN[C@H](C(=O)O)C1CCCC1; Phe(3-I) = N[C@@H](Cc1cccc(I)c1)C(=O)O; Pro(4,4-F2) = O=C(O)[C@@H]1CC(F)(F)CN1; NMeCha = CN[C@@H](CC1CCCCC1)C(=O)O; NMeChg = CN[C@H](C(=O)O)C1CCCCC1; NMeI = CC[C@H](C)[C@H](NC)C(=O)O; dNMeF = CN[C@H](Cc1ccccc1)C(=O)O; NMeβAla = CN(CCC(=O)[*:2])[*:1]; Gly(cPr) = N[C@H](C(=O)O)C1CC1; NMeD = CN[C@@H](CC(=O)O)C(=O)O; NMeL = CN[C@@H](CC(C)C)C(=O)O; d(β3hP) = O=C(O)C[C@H]1CCCN1; NMeV = CN[C@H](C(=O)O)C(C)C; d(β3hA) = C[C@@H](N)CC(=O)O; NMeAbu = CC[C@H](NC)C(=O)O; Morpholide = C1CN(*)CCO1; NMeA = CN[C@@H](C)C(=O)O; NMeAib = CNC(C)(C)C(=O)O; Piperidide = C1CCN(*)CC1; Pra = C#CC[C@H](N)C(=O)O; Pyrrolidide = C1CCN(*)C1; Ac5c = NC1(C(=O)O)CCCC1; Aze = O=C(O)[C@@H]1CCN1; Ac4c = NC1(C(=O)O)CCC1; Ac3c = NC1(C(=O)O)CC1; Sar = CNCC(=O)O

The test system of this assay is Human pancreatic cancer cell line AsPC-1 (G12D mutation Kras). The experiment in a line: AsPC-1 cell growth inhibition (AsPC-1 CGI). The format is cell-based. To be noted: read-out: AsPC-1 cell growth inhibition, 50% growth inhibitory concentration (IC50 value); 96 hours, CellTiter-Glo, values classified in ranges. A general note: ATP-based viability assays read luminescence as a measure of living cells.
Procedure: Test compounds were serially dilated with dimethyl sulfoxide, and 200 nL was then dispensed to a U-bottom 96-well plate using Labcyte Echo. […] The cell suspension was dispensed to a. plate containing a test compound at 100 μL per well and incubated at 37° C. in a 5% carbon dioxide gas incubator. 96 hours later, 80 μL of CellTiter-Glo (Promega) was added to each well and fluorescence was measured.
On to `CC[C@H](C)[C@@H]1NC(=O)[C@H](CC(C)C)N(C)C(=O)C[C@@H](C(=O)N2CCCC2)N(C)C(=O)[C@H](C2CCCCC2)N(C)C(=O)C2(CCC2)NC(=O)[C@@H]2CC(F)(F)CN2C(=O)[C@H](CCc2ccc(C(F)(F)F)c(Cl)c2)NC(=O)CN(C)C(=O)[C@H](CC2CCCCC2)N(C)C(=O)CN(C)C(=O)CN(C)C1=O` [Compound 1163] ([NMeL]I[Sar][Sar][NMeCha][Sar][hPhe(3-Cl-4-CF3)][Pro(4,4-F2)][Ac4c][NMeChg][NMeD]-Pyrrolidide; lactam N-11), for which the IC50 was not above 20 nM.
For `CC[C@H](C)[C@@H]1NC(=O)[C@H](CC(C)C)N(C)C(=O)C[C@@H](C(=O)N(C)C)N(C)C(=O)[C@H]([C@@H](C)CC)N(C)C(=O)C2(CCCC2)NC(=O)[C@H](CCC(F)F)N(C)C(=O)[C@H](CCc2ccc(C(F)(F)F)c(Cl)c2)NC(=O)CN(C)C(=O)[C@H](Cc2ccc(C)cc2)N(C)C(=O)[C@@H]2CCN2C(=O)[C@H](C)N(C)C1=O` [Compound 1898] ([NMeL]I[NMeA][Aze][NMePhe(4-Me)][Sar][hPhe(3-Cl-4-CF3)][NMeNva(5,5-F2)][Ac5c][NMeI][NMeD]-NMe2; lactam N-11) the value was not above 20 nM; for `CC[C@H](C)[C@@H]1NC(=O)CCN(C)C(=O)[C@@H](Cc2ccccc2)N(C)C(=O)[C@H](C2CCCC2)N(C)C(=O)C2(CCCC2)NC(=O)[C@@H]2CCCN2C(=O)[C@H](CCc2ccc(C(F)(F)F)c(Cl)c2)NC(=O)CN(C)C(=O)[C@H](CC2CCCCC2)N(C)C(=O)CN(C)C(=O)CN(C)C1=O` [Compound 753] (cyclo([Ac5c][NMeGly(cPent)][dNMeF][NMeβAla]I[Sar][Sar][NMeCha][Sar][hPhe(3-Cl-4-CF3)]P)), more than 500 nM; for `CC[C@H](C)[C@@H]1NC(=O)[C@H](CC(C)C)N(C)C(=O)C[C@@H](C)NC(=O)[C@H](CC)N(C)C(=O)C2(CCCC2)NC(=O)[C@@H]2CCCN2C(=O)[C@H](CCc2ccc(C(F)(F)F)c(F)c2)NC(=O)CN(C)C(=O)[C@H](CC2CCCCC2)N(C)C(=O)CN(C)C(=O)CN(C)C1=O` [Compound 1469] (cyclo([Ac5c][NMeAbu][d(β3hA)][NMeL]I[Sar][Sar][NMeCha][Sar][hPhe(3-F,4-CF3)]P)), more than 500 nM.
Take `CC[C@H](C)[C@@H]1NC(=O)[C@H](C(C)C)N(C)C(=O)C[C@@H](C)NC(=O)[C@H](CC(C)C)N(C)C(=O)C2(CCCC2)NC(=O)[C@H](CC(C)C)N(C)C(=O)[C@H](CCc2ccc(C(F)(F)F)c(F)c2)NC(=O)CN(C)C(=O)[C@H](Cc2ccc(Cl)cc2)N(C)C(=O)[C@@H]2CCN2C(=O)CN(C)C1=O` [Compound 418] (cyclo([Ac5c][NMeL][d(β3hA)][NMeV]I[Sar][Aze][NMePhe(4-Cl)][Sar][hPhe(3-F,4-CF3)][NMeL])): the IC50 was more than 500 nM.
Consider `CC[C@H](C)[C@@H]1NC(=O)[C@H](CC(C)C)N(C)C(=O)C[C@@H](C(=O)N2CCCCC2)N(C)C(=O)[C@H](C2CCCCC2)N(C)C(=O)[C@H](C)NC(=O)[C@@H]2CCCN2C(=O)[C@H](CCc2ccc(C(F)(F)F)c(Cl)c2)NC(=O)CN(C)C(=O)[C@H](CC2CCCCC2)N(C)C(=O)CN(C)C(=O)CN(C)C1=O` [Compound 591] ([NMeL]I[Sar][Sar][NMeCha][Sar][hPhe(3-Cl-4-CF3)]PA[NMeChg][NMeD]-Piperidide; lactam N-11), for which the IC50 is more than 500 nM.
Turning to `CC[C@H](C)[C@@H]1NC(=O)[C@H](CC(C)C)N(C)C(=O)C[C@@H](C(=O)N2CCN(C3COC3)CC2)NC(=O)[C@H]([C@@H](C)CC)N(C)C(=O)C2(CCCC2)NC(=O)[C@@H]2CCCN2C(=O)[C@H](CCc2ccc(C(F)(F)F)c(Cl)c2)NC(=O)CN(C)C(=O)[C@H](CC2CCCCC2)N(C)C(=O)CN(C)C(=O)CN(C)C1=O` [Compound 1191] ([NMeL]I[Sar][Sar][NMeCha][Sar][hPhe(3-Cl-4-CF3)]P[Ac5c][NMeI]D-{Piperazinyl(4-(3-oxetanyl))}; lactam N-11), the IC50 was more than 500 nM.
As for `CC[C@H](C)[C@@H]1NC(=O)[C@H](CC(C)C)N(C)C(=O)C[C@@H](C)NC(=O)[C@H](C(C)C)N(C)C(=O)C2(CCCC2)NC(=O)[C@@H]2CCCN2C(=O)[C@H](CCc2ccc(C(F)(F)F)c(Cl)c2)NC(=O)CN(C)C(=O)[C@H](Cc2cccc(F)c2)N(C)C(=O)CN(C)C(=O)CN(C)C1=O` [Compound 1556] (cyclo([Ac5c][NMeV][d(β3hA)][NMeL]I[Sar][Sar][NMePhe(3-F)][Sar][hPhe(3-Cl-4-CF3)]P)), the IC50 was more than 500 nM.
As for `CC[C@H](C)[C@@H]1NC(=O)[C@H](CC(C)C)N(C)C(=O)C[C@@H](C)N(C)C(=O)[C@H](CC(C)C)NC(=O)C(C)(C)N(C)C(=O)[C@H](CC(C)C)NC(=O)[C@H](CCc2ccc(C(F)(F)F)c(Cl)c2)NC(=O)CN(C)C(=O)[C@H](CC2CCCCC2)N(C)C(=O)[C@@H]2CCN2C(=O)CN(C)C1=O` [Compound 57] (cyclo([Aze][NMeCha][Sar][hPhe(3-Cl-4-CF3)]L[NMeAib]L[NMedβ3hAla][NMeL]I[Sar])), the IC50 is more than 500 nM.
For `CC(C)C[C@H]1C(=O)N[C@@H](C2CC2)C(=O)N(C)CC(=O)N(C)CC(=O)N(C)[C@@H](CC2CCCCC2)C(=O)N(C)CC(=O)N[C@@H](CCc2ccc(C(F)(F)F)c(Cl)c2)C(=O)N2CCC[C@H]2C(=O)NC2(CCCC2)C(=O)N(C)[C@@H](C2CCCCC2)C(=O)N(C)[C@H](C(=O)N2CCCCC2)CC(=O)N1C` [Compound 1862] ([NMeL][Gly(cPr)][Sar][Sar][NMeCha][Sar][hPhe(3-Cl-4-CF3)]P[Ac5c][NMeChg][NMeD]-Piperidide; lactam N-11) the value was more than 500 nM; for `C#CC[C@@H]1NC(=O)[C@H](Cc2cccc(I)c2)NC(=O)CN(C)C(=O)[C@H](Cc2ccc(C(F)(F)F)cc2)N(C)C(=O)CN(C)C(=O)CN(C)C(=O)[C@H]([C@@H](C)CC)NC(=O)[C@H](CC(C)C)N(C)C(=O)C[C@@H](C(=O)N2CCCCC2)N(C)C(=O)[C@H](CC(C)C)NC(=O)C(C)(C)N(C)C1=O` [Compound 1361] ([NMeL]I[Sar][Sar][NMePhe(4-CF3)][Sar][Phe(3-I)][Pra][NMeAib]L[NMeD]-Piperidide; lactam N-11), more than 500 nM.
Consider `CC[C@H](C)[C@@H]1NC(=O)[C@H](CC(C)C)N(C)C(=O)C[C@H]2CCCN2C(=O)[C@H](C2CCCCC2)N(C)C(=O)C2(CCCC2)NC(=O)[C@@H]2CCCN2C(=O)[C@H](CCc2ccc(C(F)(F)F)c(Cl)c2)NC(=O)CN(C)C(=O)[C@H](CC2CCCCC2)N(C)C(=O)CN(C)C(=O)CN(C)C1=O` [Compound 1185] (cyclo([Ac5c][NMeChg][d(β3hP)][NMeL]I[Sar][Sar][NMeCha][Sar][hPhe(3-Cl-4-CF3)]P)), for which the IC50 is more than 500 nM.
Regarding `CC[C@H](C)[C@@H]1NC(=O)[C@H](CC(C)C)N(C)C(=O)C[C@@H](C(=O)N2CCOCC2)NC(=O)[C@H]([C@@H](C)CC)N(C)C(=O)C2(CCCC2)NC(=O)[C@@H]2CCCN2C(=O)[C@H](CCc2ccc(C(F)(F)F)c(Cl)c2)NC(=O)CN(C)C(=O)[C@H](CC2CCCCC2)N(C)C(=O)CN(C)C(=O)CN(C)C1=O` [Compound 1277] ([NMeL]I[Sar][Sar][NMeCha][Sar][hPhe(3-Cl-4-CF3)]P[Ac5c][NMeI]D-Morpholide; lactam N-11), the IC50 is more than 500 nM.
As to `CC[C@H](C)[C@@H]1NC(=O)[C@H](CC(C)C)N(C)C(=O)C[C@@H](C(=O)N2CCCCC2)N(C)C(=O)[C@H](C(C)C)N(C)C(=O)C2(CC2)NC(=O)[C@@H]2CCCN2C(=O)[C@H](CCc2ccc(C(F)(F)F)c(Cl)c2)NC(=O)CN(C)C(=O)[C@H](CC2CCCCC2)N(C)C(=O)CN(C)C(=O)CN(C)C1=O` [Compound 468] ([NMeL]I[Sar][Sar][NMeCha][Sar][hPhe(3-Cl-4-CF3)]P[Ac3c][NMeV][NMeD]-Piperidide; lactam N-11), the IC50 is more than 500 nM.

These data come from US20240148821A1, “PHARMACEUTICAL USE OF CYCLIC PEPTIDE COMPOUND” (CHUGAI SEIYAKU KABUSHIKI KAISHA, priority 2021, published 2024).
